Source: patent publication US5300629A, “Bactericidal and/or bacteriostatic peptides isolated from hemolymph of honeybees” (Plant Genetic Systems, N.V., priority 1987, dated 1994)
Where a SMILES comes first, the peptide text is derived from it.

Tests used:
Format in all cases: cell-based
[1] = test system: Erwinia carotovora var. atroseptica NCPPB 549; assay: Inhibition zone assay; set-up: key: --: "-" means that no inhibition has been found; conditions: I and B 10 ul, L 5 ug
[2] = test system: Serratia marcescens ATCC 17991; assay: Inhibition zone assay; set-up: key: --: "-" means that no inhibition has been found
[3] = test system: Agrobacterium tumefaciens ATCC 143; assay: Inhibition zone assay; set-up: key: --: "-" means that no inhibition has been found
[4] = test system: Pseudomonas cepacia ATCC 25416; assay: Inhibition zone assay; set-up: key: --: "-" means that no inhibition has been found; conditions: I and B 10 ul, L 5 ug
[5] = test system: Azospirillum lipoferum ATCC 29707; assay: Inhibition zone assay; set-up: key: --: "-" means that no inhibition has been found; conditions: I and B 10 ul, L 5 ug
[6] = test system: Xanthomonas campestris pv. campestris A 902; assay: Inhibition zone assay; set-up: key: --: "-" means that no inhibition has been found; conditions: * synthetic ApidIa and heattreated immune lymph instead of Bee6 and native immune lymph
Klebsiella oxytoca KO2 = assay: Inhibition zone assay; set-up: key: --: "-" means that no inhibition has been found
[7] = test system: Bordetella bronchiseptica ATCC 19395; assay: Inhibition zone assay; set-up: key: --: "-" means that no inhibition has been found; conditions: I and B 10 ul, L 5 ug
[8] = test system: Erwinia amylovora NCPPB 638; assay: Inhibition zone assay
[9] = test system: Pseudomonas aeruginosa ATCC 7700; assay: Inhibition zone assay; set-up: key: --: "-" means that no inhibition has been found
[10] = test system: Agrobacterium rhizogenes ATCC 11325; assay: Inhibition zone assay; set-up: key: --: "-" means that no inhibition has been found; conditions: I and B 10 ul, L 5 ug
[11] = test system: Bacillus thuringiensis DSM 3131; assay: Inhibition zone assay; set-up: key: --: "-" means that no inhibition has been found; conditions: I and B 10 ul, L 5 ug
[12] = test system: Corynebacterium diphteriae HB 11 t1; assay: Inhibition zone assay; set-up: key: --: "-" means that no inhibition has been found; conditions: I 10 ul
Streptococci = assay: Growth-inhibition zone assay
[13] = test system: Escherichia coli NCTC 11601; assay: Inhibition zone assay; set-up: key: --: "-" means that no inhibition has been found; conditions: I 10 ul
[14] = test system: Xanthomonas campestris pv. vesicatoria XV82-4; assay: Inhibition zone assay; set-up: key: --: "-" means that no inhibition has been found; conditions: I and B 10 ul, L 5 ug
[15] = test system: Rhizobium meliloti ZB 314; assay: Inhibition zone assay; conditions: I and B 10 ul, L 5 ug
[16] = test system: Alcalienes denitrificans ATCC 15173; assay: Inhibition zone assay; set-up: key: --: "-" means that no inhibition has been found
[17] = test system: Enterobacter cloacae BE 97; assay: Inhibition zone assay; set-up: key: --: "-" means that no inhibition has been found; conditions: I and B 10 ul
[18] = test system: Agrobacterium tumefaciens DSM 3129; assay: Inhibition zone assay; conditions: I and B 10 ul, L 5 ug
[19] = test system: Enterobacter agglomerans Gilardi 1081; assay: Inhibition zone assay; set-up: key: --: "-" means that no inhibition has been found; conditions: I and B 10 ul, L 5 ug
[20] = test system: Azospirillum brasilliense ATCC 29145; assay: Inhibition zone assay; set-up: key: --: "-" means that no inhibition has been found
[21] = test system: Corynebacterium insidiosum NCPPB 1109; assay: Inhibition zone assay; conditions: I and B 10 ul, L 5 ug
Experimental: Whole lymph or purified components, resuspended in PBS to a final volume equal to the starting material (heated lymph), was applied in 3 mm wells on agar plates seeded with the test organisms. Antibacterial activity was determined by measuring the growth-inhibition zones (in mm).

[22] = test system: Xanthomonas campestris pv. oryzae IRN 235; set-up: key: --: "-" means that no inhibition has been found
[23] = test system: Rhizobium leguminosarum 720; assay: Inhibition zone assay; set-up: key: --: "-" means that no inhibition has been found
[24] = test system: Pseudomonas syringae pv. tomato NCPPB 1106; assay: Inhibition zone assay; set-up: key: --: "-" means that no inhibition has been found; conditions: * synthetic ApidIa and heattreated immune lymph instead of Bee6 and native immune lymph
[25] = test system: Rhodococcus equi ATCC 25729; assay: Inhibition zone assay; set-up: key: --: "-" means that no inhibition has been found; conditions: I and B 10 ul, L 5 ug
[26] = test system: Pseudomonas aureofaciens CCEB 518; assay: Inhibition zone assay; set-up: key: --: "-" means that no inhibition has been found; conditions: I and B 10 ul, L 5 ug
E. coli NCTC 9001 = assay: Killing assay, growth inhibition in liquid medium; conditions: purified factors in PBS (7.5% LPG), 10^3 cells, optical density at 630 nm
Experimental: Bacterial development was monitored by measuring the optical densities and by plate counts. […] The purified factors resuspended in PBS (7.5% LPG) (FIG. 4A, 4B, 4C, 4D) were inoculated with 10^4 cells (C) or 10^3 cells (A, B and D) . Bacterial development was calculated by measuring the optical densities at 630 nm.

[27] = test system: Arthrobacter sp. NRRL B-3724; assay: Inhibition zone assay
[28] = test system: Pseudomonas syringae pv. maculicola NCPPB 1776; assay: Inhibition zone assay; set-up: key: --: "-" means that no inhibition has been found; conditions: * synthetic ApidIa and heattreated immune lymph instead of Bee6 and native immune lymph
[29] = test system: Neisseria mucosa ATCC 25999; assay: Inhibition zone assay; set-up: key: --: "-" means that no inhibition has been found; conditions: I 10 ul
Salmonella Wien 83/16 = assay: Inhibition zone assay; set-up: key: --: "-" means that no inhibition has been found; conditions: I and B 10 ul
Bacillus cereus LMG 2098 = assay: Inhibition zone assay; set-up: key: --: "-" means that no inhibition has been found
[30] = test system: Clostridium perfringens NCTC 6785; set-up: key: --: "-" means that no inhibition has been found; conditions: I 10 ul

`CC[C@H](C)[C@H](NC(=O)[C@H](CCCCN)NC(=O)[C@@H]1CCCN1C(=O)[C@H](CC(N)=O)NC(=O)[C@H](Cc1ccccc1)NC(=O)[C@@H]1CCCN1C(=O)CNC(=O)[C@H](CCC(N)=O)NC(=O)CNC(=O)[C@@H]1CCCN1C(=O)[C@H](Cc1ccccc1)NC(=O)[C@@H](NC(=O)[C@@H]1CCCN1C(=O)[C@H](Cc1ccccc1)NC(=O)[C@@H]1CCCN1C(=O)[C@H](CCCNC(=N)N)NC(=O)[C@H](CCCNC(=N)N)NC(=O)CNC(=O)[C@@H]1CCCN1C(=O)[C@H](CCC(N)=O)NC(=O)[C@@H]1CCCN1C(=O)[C@@H](NC(=O)[C@H](CC(N)=O)NC(=O)[C@@H]1CCCN1C(=O)[C@H](CC(C)C)NC(=O)[C@@H]1CCCN1C(=O)[C@@H](NC(=O)[C@@H](N)Cc1ccc(O)cc1)C(C)C)C(C)C)[C@@H](C)O)C(=O)N[C@@H](CCCCN)C(=O)N[C@@H](Cc1c[nH]c2ccccc12)C(=O)N1CCC[C@H]1C(=O)N[C@@H](CCC(N)=O)C(=O)NCC(=O)N[C@@H](Cc1ccc(O)cc1)C(=O)O` [bee 9] (H-YVPLPNVPQPGRRPFPTFPGQGPFNPKIKWPQGY-OH) was tested, and the “diameter of growth-inhibition zone” value [1] was “--”, the “diameter of growth-inhibition zone” value [2] was “--” and the “diameter of growth-inhibition zone” value [3] was “--”. For the same compound, the “diameter of growth-inhibition zone” value [4] was “--”, the “diameter of growth-inhibition zone” value [5] was “--” and the “diameter of growth-inhibition zone” value [6] was “--”. The “diameter of growth-inhibition zone” value (Klebsiella oxytoca KO2) was “--”, the “diameter of growth-inhibition zone” value [7] was “--” and the “diameter of growth-inhibition zone” value [8] was 5 mm. The “diameter of growth-inhibition zone” value [9] was “--”, the “diameter of growth-inhibition zone” value [10] was “--” and the “diameter of growth-inhibition zone” value [11] was “--”. The “diameter of growth-inhibition zone” value [12] was “--”, the “susceptibility, in words” value (Streptococci) was “resistant” and the “diameter of growth-inhibition zone” value [13] was “--”. For the same compound, the “diameter of growth-inhibition zone” value [14] was “--”, the “diameter of growth-inhibition zone” value [15] was 4 mm and the “diameter of growth-inhibition zone” value [16] was “--”. For the same compound, the “diameter of growth-inhibition zone” value [17] was “--”, the “diameter of growth-inhibition zone” value [18] was 4 mm and the “diameter of growth-inhibition zone” value [19] was “--”. For the same compound, the “diameter of growth-inhibition zone” value [20] was “--”, the “diameter of growth-inhibition zone” value [21] was 7 mm and the “diameter of growth-inhibition zone” value [22] was “--”. The “diameter of growth-inhibition zone” value [23] was “--”, the “diameter of growth-inhibition zone” value [24] was “--” and the “diameter of growth-inhibition zone” value [25] was “--”. For the same compound, the “diameter of growth-inhibition zone” value [26] was “--”, the “activity, growth inhibition in liquid medium” value (E. coli NCTC 9001) was “neither susceptible” and the “diameter of growth-inhibition zone” value [27] was 8 mm. The “diameter of growth-inhibition zone” value [28] was “--”, the “diameter of growth-inhibition zone” value [29] was “--” and the “diameter of growth-inhibition zone” value (Salmonella Wien 83/16) was “--”. The “diameter of growth-inhibition zone” value (Bacillus cereus LMG 2098) was “--” and the “diameter of growth-inhibition zone” value [30] was “--”.
